melting point: 78 to 84 °C
Compound: CP(=O)(O)CC(F)CN (stereo not shown)

— US6596711B1, “(Aminopropyl)methylphosphinic acids” (AstraZeneca AB, priority 1999, dated 2003)
